The values that follow come from patent publication US10975037B2 (priority 2018, dated 2021).

Structures can show the parent of a compound that is named as a salt. Where two headings read alike, the source gives them in different places.

In one experiment the target is full-length human RORγt (Homo sapiens (Human), UniProt P51449). In words: RORγt (full-length human) reporter assay, conditions A or B, HEK293T cells. In kind it is cell-based. To be noted: for inhibition at 3 µM: 3 μM compound concentration (footnote *); for IC50: RORγt (FL) Reporter Assay A or B, IC50, HEK293T cells; for inhibition at 6 µM: read-out: RORγt (FL) Reporter Assay A or B, % inhibition @ 6 μM; for inhibition at 2 µM: 2 μM compound concentration. Summed up: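 After 16–20 h, dual firefly/Renilla luciferase luminescence was read. Firefly signal was normalized to DMSO and saturating reference compound, then to Renilla, and fitted for IC50; % inhibition is versus DMSO.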

Experiment [1] addresses human RORγt ligand binding domain (RORγt LBD) (Homo sapiens (Human), UniProt P51449). As to the kind of experiment: RORγt ThermoFluor® assay (thermal shift binding). Summed up:
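Thermal shift with 0.065 mg/mL RORγt LBD and 60 μM 1,8-ANS in 100 mM Hepes pH 7.0, 10 mM NaCl, 2.5 mM GSH, 0.002% Tween-20.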
(DSF heats the sample and reads unfolding from a dye or from intrinsic fluorescence.)

The mark [2] stands for this setting: HEK-293T, read-out: RORγt (FL) Reporter Assay A or B, % inhibition.
Where [3] appears, read: read-out: ThermoFluor® Assay, Kd.
[4] abbreviates: HEK-293T, 0.33 μM compound concentration (footnote *****), read-out: RORγt (FL) Reporter Assay A or B, % inhibition.

Chain of full-length human RORγt (P51449 other isoform, or with tags, fused parts or gaps): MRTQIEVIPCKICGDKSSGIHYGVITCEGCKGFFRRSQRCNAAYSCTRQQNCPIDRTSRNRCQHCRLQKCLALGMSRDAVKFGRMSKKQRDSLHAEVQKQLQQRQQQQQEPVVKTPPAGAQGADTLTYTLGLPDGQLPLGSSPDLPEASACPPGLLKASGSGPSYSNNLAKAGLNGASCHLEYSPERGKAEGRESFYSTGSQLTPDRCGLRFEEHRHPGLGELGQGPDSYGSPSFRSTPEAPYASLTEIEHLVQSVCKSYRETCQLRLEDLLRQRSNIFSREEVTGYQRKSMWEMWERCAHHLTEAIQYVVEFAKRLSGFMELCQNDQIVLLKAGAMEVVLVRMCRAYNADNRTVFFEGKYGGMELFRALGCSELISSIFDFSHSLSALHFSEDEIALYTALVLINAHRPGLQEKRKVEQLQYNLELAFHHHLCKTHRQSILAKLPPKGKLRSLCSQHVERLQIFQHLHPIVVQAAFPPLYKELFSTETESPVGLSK
Chain of human RORγt ligand binding domain (RORγt LBD) (P51449 other isoform, or with tags, fused parts or gaps): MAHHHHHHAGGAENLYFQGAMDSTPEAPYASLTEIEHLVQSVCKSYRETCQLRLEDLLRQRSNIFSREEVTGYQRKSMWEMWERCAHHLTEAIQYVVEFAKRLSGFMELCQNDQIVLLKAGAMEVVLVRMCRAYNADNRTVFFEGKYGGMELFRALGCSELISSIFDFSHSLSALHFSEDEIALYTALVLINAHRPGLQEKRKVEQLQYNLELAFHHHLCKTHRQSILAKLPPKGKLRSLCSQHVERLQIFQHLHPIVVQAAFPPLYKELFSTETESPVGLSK

A word on the inhibition: it is the drop in the measured response relative to a control, in per cent. A word on the IC50: it is the concentration needed to halve the response being measured. Low values mean inhibition by little substance, high ones a need for much substance. Usually Kd stands for the concentration at which binding is half-saturated. Regarding `CCn1nc(C(=O)NC[C@H]2CC[C@H](S(C)(=O)=O)CC2)c(Cl)c1-c1ccc(C(O)(C(F)(F)F)C(F)(F)F)cc1OC(F)F` [Example 116, 4-Chloro-5-(2-(difluoromethoxy)-4-(1,1,1,3,3,3-hexafluoro-2-hydroxypropan-2-yl)phenyl)-1-ethyl-N-(((1r,4r)-4-(methylsulfonyl)cyclohexyl)methyl)-1H-pyrazole-3-carboxamide], the inhibition at 3 µM on full-length human RORγt (setting [2]) worked out at 106%. For the same compound, at full-length human RORγt, the 50% inhibitory concentration (IC50) came to 3.4 nM. In experiment [1] (setting [3]), the dissociation constant Kd worked out at 0.15 nM.

Take `CCn1nc(C(=O)NC[C@]2(O)CC[C@@H](S(C)(=O)=O)CC2)c(C#N)c1-c1ccc(CC(C)(C)C(F)(F)F)cc1OC` [Example 126, 4-Cyano-1-ethyl-N-(((1s,4s)-1-hydroxy-4-(methylsulfonyl)cyclohexyl)methyl)-5-(2-methoxy-4-(3,3,3-trifluoro-2,2-dimethylpropyl)phenyl)-1H-pyrazole-3-carboxamide]: the inhibition at 6 µM at full-length human RORγt (HEK-293T) came to 101%. The compound further returned an IC50 against full-length human RORγt of 84 nM. Besides, the Kd in experiment [1] (setting [3]) stood at 12 nM.

`COc1cc(N[C@H](C)C(F)(F)F)ccc1-c1c(Cl)c(C(=O)NC[C@]2(O)CC[C@@H](S(C)(=O)=O)CC2)nn1CC(C)C` [Example 29, 4-Chloro-N-(((1s,4S)-1-hydroxy-4-(methylsulfonyl)cyclohexyl)methyl)-1-isobutyl-5-(2-methoxy-4-(((R)-1,1,1-trifluoropropan-2-yl)amino)phenyl)-1H-pyrazole-3-carboxamide]: the inhibition at 6 µM at full-length human RORγt (HEK-293T) worked out at 108%. On full-length human RORγt, this compound showed an IC50 of 61 nM. Moreover, in experiment [1] (setting [3]), the Kd was determined as 8.3 nM.

Turning to `Cn1nc(C(=O)NC[C@]2(O)CC[C@@H](S(C)(=O)=O)CC2)c(Cl)c1-c1ccc(CC(C)(C)C(F)(F)F)cc1OC(F)F` [Example 154, 4-Chloro-5-(2-(difluoromethoxy)-4-(3,3,3-trifluoro-2,2-dimethylpropyl)phenyl)-N-(((1s,4s)-1-hydroxy-4-(methylsulfonyl)cyclohexyl)methyl)-1-methyl-1H-pyrazole-3-carboxamide], the inhibition at 0.67 µM at full-length human RORγt (HEK-293T, 0.67 μM compound concentration (footnote ****), read-out: RORγt (FL) Reporter Assay A or B, % inhibition) was determined as 91%. At full-length human RORγt, this compound gave an IC50 of 4.5 nM. Also, the Kd in experiment [1] (setting [3]) came to 0.79 nM.

Take `CCCn1nc(C(=O)NC[C@]2(O)CC[C@@H](S(C)(=O)=O)CC2)c(Cl)c1-c1ccc(N[C@H](C)C(F)(F)F)cc1OC` [Example 31, 4-Chloro-N-(((1s,4S)-1-hydroxy-4-(methylsulfonyl)cyclohexyl)methyl)-5-(2-methoxy-4-(((R)-1,1,1-trifluoropropan-2-yl)amino)phenyl)-1-propyl-1H-pyrazole-3-carboxamide]: the inhibition at 6 µM on full-length human RORγt (HEK-293T) was 105%. For the same compound, on full-length human RORγt, the IC50 turned out to be 41 nM. Further, in experiment [1] (setting [3]), the Kd stood at 7.2 nM.

Regarding `CCn1nc(C(=O)NCC2(N)CCC(S(C)(=O)=O)CC2)c(Cl)c1-c1ccc(CC(C)C(F)(F)F)cc1OC` (stereo not drawn) [Example 128, N-((1-Amino-4-(methylsulfonyl)cyclohexyl)methyl)-4-chloro-1-ethyl-5-(2-methoxy-4-(3,3,3-trifluoro-2-methylpropyl)phenyl)-1H-pyrazole-3-carboxamide], the inhibition at 2 µM on full-length human RORγt (setting [2]) came out at 63%. On full-length human RORγt, half-maximal inhibition (IC50) was put at 850 nM. In addition, the Kd in experiment [1] (setting [3]) is 140 nM.

In the case of `CCn1nc(C(=O)NC[C@]2(O)CC[C@@H](S(C)(=O)=O)CC2)c(Cl)c1-c1ccc(C[C@@H](C)C(F)(F)F)cc1OC(F)F` (single isomer, unassigned) [Example 136, 4-Chloro-5-(2-(difluoromethoxy)-4-((R*)-3,3,3-trifluoro-2-methylpropyl)phenyl)-1-ethyl-N-(((1s,4S)-1-hydroxy-4-(methylsulfonyl)cyclohexyl)methyl)-1H-pyrazole-3-carboxamide], the inhibition at […] on full-length human RORγt (setting [4]) was 89%. The same compound returned an IC50 at full-length human RORγt of 3.6 nM. Moreover, in experiment [1] (ThermoFluor® Assay, Kd), the Kd amounted to 1.1 nM.

In the case of `CCn1nc(C(=O)NC[C@H]2CC[C@H](S(N)(=O)=O)CC2)c(C)c1-c1ccc(C[C@H](C)C(F)(F)F)cc1OC(F)F` (single isomer, unassigned) [Example 59, 5-(2-(difluoromethoxy)-4-((S*)-3,3,3-trifluoro-2-methylpropyl)phenyl)-1-ethyl-4-methyl-N-(((1r,4S)-4-sulfamoylcyclohexyl)methyl)-1H-pyrazole-3-carboxamide], the inhibition at […] on full-length human RORγt (setting [4]) came to 93%. This compound gave an IC50 on full-length human RORγt of 19 nM. In addition, in experiment [1] (ThermoFluor® Assay, Kd), the Kd amounted to 1.2 nM.

In the case of `CCn1nc(C(=O)NC[C@@H]2CC[C@@H](S(C)(=O)=O)C[C@H]2O)c(Cl)c1-c1ccc(CC(C)(C)C(F)(F)F)cc1OC(F)F` (single isomer, unassigned) [Example 22, 4-Chloro-5-(2-(difluoromethoxy)-4-(3,3,3-trifluoro-2,2-dimethylpropyl)phenyl)-1-ethyl-N-(((1S*,2R*,4R*)-2-hydroxy-4-(methylsulfonyl)cyclohexyl)methyl)-1H-pyrazole-3-carboxamide], the inhibition at 1 µM at full-length human RORγt (HEK-293T, 1 μM compound concentration (footnote ***), read-out: RORγt (FL) Reporter Assay A or B, % inhibition) is 100%. Further, the IC50 against full-length human RORγt was 4.2 nM. In addition, in experiment [1] (ThermoFluor® Assay, Kd), the Kd is 0.44 nM.

Consider `Cn1nc(C(=O)NC[C@@]2(O)CC[C@H](S(C)(=O)=O)C[C@@H]2O)c(Cl)c1-c1ccc(CCCC(F)(F)F)cc1OC(F)F` (stereo in doubt) [Example 159, 4-Chloro-5-(2-(difluoromethoxy)-4-(4,4,4-trifluorobutyl)phenyl)-N-(((1S*,2S*,4S*)-1,2-dihydroxy-4-(methylsulfonyl)cyclohexyl)methyl)-1-methyl-1H-pyrazole-3-carboxamide], for which the inhibition at 3 µM at full-length human RORγt (setting [2]) was found to be 73%. Also, the IC50 at full-length human RORγt came out at 39 nM. Moreover, in experiment [1] (ThermoFluor® Assay, Kd), the dissociation constant Kd came out at 41 nM.

`CCn1nc(C(=O)NC[C@H]2CC[C@H](S(C)(=O)=O)CC2)c(Cl)c1-c1ccc(N[C@H](C)C(F)(F)F)cc1C(F)(F)F` [Example 172, 4-Chloro-1-ethyl-N-(((1r,4R)-4-(methylsulfonyl)cyclohexyl)methyl)-5-(2-(trifluoromethyl)-4-(((R)-1,1,1-trifluoropropan-2-yl)amino)phenyl)-1H-pyrazole-3-carboxamide]: the inhibition at 2 µM at full-length human RORγt (setting [2]) is 100%. Further, the IC50 at full-length human RORγt is 28 nM. Moreover, the Kd in experiment [1] (setting [3]) turned out to be 3.8 nM.

As to `CCn1nc(C(=O)NC[C@@H]2CC[C@@H](S(C)(=O)=O)CN2)c(Cl)c1-c1ccc(CC(C)(C)C(F)(F)F)cc1OC(F)F` (stereo in doubt) [Example 10, 4-Chloro-5-(2-(difluoromethoxy)-4-(3,3,3-trifluoro-2,2-dimethylpropyl)phenyl)-1-ethyl-N-(((2S*,5R*)-5-(methylsulfonyl)piperidin-2-yl)methyl)-1H-pyrazole-3-carboxamide hydrobromide], at full-length human RORγt (setting [2]), the inhibition at 3 µM came out at 103%. Further, the IC50 on full-length human RORγt came out at 25 nM. Moreover, the Kd in experiment [1] (ThermoFluor® Assay, Kd) worked out at 2.6 nM.

Take `CCn1nc(C(=O)NC[C@]2(O)CC[C@@H](S(C)(=O)=O)CC2)c(C)c1-c1ccc(CCC(F)(F)F)cc1OC(F)F` [Example 223, 5-(2-(Difluoromethoxy)-4-(3,3,3-trifluoropropyl)phenyl)-1-ethyl-N-(((1s,4s)-1-hydroxy-4-(methylsulfonyl)cyclohexyl)methyl)-4-methyl-1H-pyrazole-3-carboxamide]: at full-length human RORγt (setting [4]), the inhibition at […] was determined as 68%. The compound also displayed a concentration for half-maximal inhibition (IC50) against full-length human RORγt of 2.3 nM. Moreover, the equilibrium dissociation constant (Kd) in experiment [1] (setting [3]) was 10 nM.

For the compound `CCn1nc(C(=O)NC[C@]2(C(=O)O)CC[C@@H](S(C)(=O)=O)CC2)c(Cl)c1-c1ccc(N[C@H](C)C(F)(F)F)cc1OC` (relative stereo) [Example 97, (1s*,4S*)-1-((4-Chloro-1-ethyl-5-(2-methoxy-4-(((R)-1,1,1-trifluoropropan-2-yl)amino)phenyl)-1H-pyrazole-3-carboxamido)methyl)-4-(methylsulfonyl)cyclohexane-1-carboxylic Acid], the inhibition at 6 µM on full-length human RORγt (HEK-293T, 6 μM compound concentration) came to 94%. Also, the IC50 against full-length human RORγt was determined as 730 nM. In experiment [1] (ThermoFluor® Assay, Kd), the Kd is 180 nM.

For the compound `CCn1nc(C(=O)NC[C@H]2CC[C@H](S(C)(=O)=O)CC2)c(Cl)c1-c1ccc(CC(C)(C)C(F)(F)F)cc1` [Example 168, 4-Chloro-1-ethyl-N-(((1r,4r)-4-(methylsulfonyl)cyclohexyl)methyl)-5-(4-(3,3,3-trifluoro-2,2-dimethylpropyl)phenyl)-1H-pyrazole-3-carboxamide], the inhibition at […] on full-length human RORγt (HEK-293T, 0.22 μM compound concentration (footnote *******), read-out: RORγt (FL) Reporter Assay A or B, % inhibition) came to 71%. The same compound gave an IC50 against full-length human RORγt of 18 nM. In addition, the equilibrium dissociation constant (Kd) in experiment [1] (setting [3]) was 4 nM.

As to `COCCn1nc(C(=O)NC[C@]2(O)CC[C@@H](S(C)(=O)=O)CC2)c(C)c1-c1ccc(CC(C)(C)C(F)(F)F)cc1OC(F)F` [Example 150, 5-(2-(Difluoromethoxy)-4-(3,3,3-trifluoro-2,2-dimethylpropyl)phenyl)-N-(((1s,4s)-1-hydroxy-4-(methylsulfonyl)cyclohexyl)methyl)-1-(2-methoxyethyl)-4-methyl-1H-pyrazole-3-carboxamide], the inhibition at 2 µM at full-length human RORγt (setting [2]) is 95%. Further, the half-maximal inhibitory concentration (IC50) against full-length human RORγt was determined as 13 nM. For the same compound, the Kd in experiment [1] (setting [3]) amounted to 1.9 nM.
